According to the supplement of paper PMC10307832:

Legend:
Experiment in all cases: relative viability (nuclei count vs DMSO), 5 days (fraction); higher = more cells survive
[1] = compound: CCN(CC)CCCCNc1ncc2cc(-c3cc(OC)cc(OC)c3)c(NC(=O)NC(C)(C)C)nc2n1
Procedure, shortened: (§1)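 Acceptance criteria were a control CV below 25% and at least one doubling per plate. Lung cancer cell lines in 1536-well plates got five library-drug doses (not always all listed) √10 apart by pinning and were left 5 days with no medium change. Viability divides treated-well nuclei by vehicle-well nuclei and is the median across plates. Nuclei were counted by MetaXpress from 4× Hoechst images.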

Zibotentan = compound: COc1nc(C)cnc1NS(=O)(=O)c1cccnc1-c1ccc(-c2nnco2)cc1 [Zibotentan]
Procedure, shortened: as §1

PRIMA-1MET = compound: COCC1(CO)C(=O)C2CCN1CC2 [PRIMA-1MET]
Procedure, shortened: as §1

[2] = compound: C1COCCN1C2=CC(=O)C3=C(O2)C(=CC=C3)C4=CC=CC5=C4SC6=CC=CC=C56
Procedure, shortened: as §1

[3] = compound: O=c1cc(-c2cccc3c2Sc2ccccc2S3)oc(N2CCOCC2)c1
Procedure, shortened: as §1

Cell Line | relative viability ([1]; 0.01 µM) | relative viability ([1]; 0.03162 µM) | relative viability ([1]; 0.1 µM) | relative viability ([1]; 0.3162 µM) | relative viability ([1]; 1 µM) | relative viability (Zibotentan; 0.08 µM) | relative viability (Zibotentan; 0.253 µM) | relative viability (Zibotentan; 0.8 µM) | relative viability (Zibotentan; 2.53 µM) | relative viability (PRIMA-1MET; 0.2 µM) | relative viability (PRIMA-1MET; 0.6325 µM) | relative viability (PRIMA-1MET; 2 µM) | relative viability (PRIMA-1MET; 6.325 µM) | relative viability (PRIMA-1MET; 20 µM) | relative viability ([2]; 0.01 µM) | relative viability ([2]; 0.03162 µM) | relative viability ([2]; 0.1 µM) | relative viability ([2]; 0.3162 µM) | relative viability ([2]; 1 µM) | relative viability ([3]; 0.08 µM) | relative viability ([3]; 0.253 µM) | relative viability ([3]; 0.8 µM) | relative viability ([3]; 2.53 µM) | relative viability ([3]; 8 µM)
201T | 0.976 | 0.972 | 1.01 | 0.954 | 0.898 | 1.01 | 0.968 | 0.986 | 0.978 | 1.07 | 0.93 | 0.758 | 1.01 | 0.987 | 0.988 | 0.989 | 1.01 | 0.954 | 0.953 | 0.952 | 0.971 | 0.844 | 0.944 | 1.03
A549 | 0.927 | 0.97 | 1.15 | 1.06 | 0.876 | 1.04 | 0.938 | 0.931 | 1 | 1.1 | 0.893 | 0.944 | 1.01 | 0.891 | 1.01 | 0.96 | 1.01 | 0.973 | 0.914 | 0.946 | 1.22 | 1.1 | 0.991 | 1.07
A-427 | 1.01 | 0.896 | 1.07 | 1.12 | 0.844 | 1.08 | 0.972 | 0.942 | 1.01 | 1.01 | 0.836 | 0.831 | 1.02 | 0.855 | 0.967 | 1.05 | 0.923 | 0.979 | 1 | 0.958 | 1.03 | 1.09 | 0.814 | 1.06
ABC-1 | 0.957 | 0.838 | 1.25 | 1.07 | 0.869 | 1.06 | 0.753 | 0.96 | 1 | 0.953 | 0.621 | 0.903 | 0.829 | 0.247 | 0.917 | 1.16 | 1.03 | 1.04 | 0.954 | 0.922 | 1.09 | 0.808 | 0.976 | 1.12
BEN | 1 | 0.89 | 1 | 1.01 | 0.816 | 1.06 | 0.782 | 0.936 | 0.941 | 0.982 | 0.825 | – | 1.06 | 1.01 | 0.919 | 1.04 | 0.931 | 1.04 | 0.897 | 0.876 | 0.931 | 0.946 | 0.996 | 1.18
CAL-12T | 0.901 | 1.03 | 1.04 | 1.04 | 0.974 | 0.965 | 0.918 | 0.942 | 1.03 | 0.946 | 0.924 | 1.02 | 0.934 | 0.352 | 0.924 | 0.991 | 1.03 | 1.05 | 0.854 | 0.94 | 1.06 | 0.952 | 0.955 | 0.883
COR-L23 | 1.1 | 1.14 | 1.33 | 1.16 | 1.11 | 1.06 | 1.06 | 1.01 | 1.03 | 1.33 | 0.936 | 0.94 | 1.11 | 0.0329 | 1 | 1 | 1.01 | 1.02 | 1.06 | 1.03 | 1.37 | 1.12 | 1.03 | 1.14
COR-L 105 | 0.838 | 0.914 | 1.1 | 1.06 | 0.835 | 1.01 | 0.861 | 0.959 | 1.02 | 1 | 0.899 | 0.818 | 0.835 | 0.175 | 0.88 | 0.926 | 0.943 | 0.899 | 0.914 | 0.811 | 1.04 | 0.871 | 0.835 | 0.978
Calu-6 | 0.989 | 1.1 | 1.11 | 1.11 | 1.02 | 1.04 | 0.932 | 0.979 | 1 | 1.06 | 0.977 | 0.97 | 0.948 | 0.812 | 1.05 | 1.06 | 1.08 | 1.01 | 1.05 | 1 | 1.1 | 1.05 | 0.955 | 0.924
ChaGo-K-1 | 1.02 | 0.967 | 1.11 | 1.02 | 0.941 | 1.04 | 0.983 | 0.743 | 0.943 | 0.994 | 0.814 | 0.98 | 1 | 0.884 | 1.03 | 0.956 | 0.95 | 1.04 | 0.954 | 0.975 | 0.953 | 1.03 | 0.935 | 1.08
EBC-1 | 1.11 | 0.988 | 1.06 | 1.24 | 0.953 | 0.944 | 0.991 | 1.06 | 1.09 | 1.09 | 0.998 | 0.933 | 0.987 | 0.811 | 1.04 | 0.965 | 0.928 | 0.932 | 0.917 | 1.02 | 1.07 | 0.98 | 0.929 | 0.779
EKVX | 0.888 | 0.877 | 1.02 | 1.13 | 0.981 | 0.957 | 0.944 | 0.963 | 1.03 | 1.17 | 0.905 | 0.731 | 0.975 | 0.885 | 0.964 | 0.966 | 1.04 | 0.926 | 0.924 | 0.974 | 0.997 | 0.903 | 0.888 | 1.03
EMC-BAC-2 | – | 0.967 | 1.13 | 1.13 | 0.994 | 1.41 | – | 1.08 | 1.02 | 1.31 | 0.916 | 0.738 | 1.05 | 0.971 | 0.94 | 1.03 | 1.07 | 1.09 | 0.655 | 0.927 | 1.12 | 0.999 | 1.03 | 1.18
EPLC-272H | 1.04 | 0.686 | 1.03 | 1.05 | 0.703 | 0.945 | 1.07 | 0.863 | 0.911 | 0.862 | 0.839 | 0.943 | 1.03 | 0.831 | 1.01 | 0.947 | 0.676 | 1.04 | 0.87 | 0.936 | 0.939 | 0.959 | 0.907 | 1.18
H3255 | 0.999 | 0.938 | 1.07 | 1.12 | 0.978 | 0.981 | 1.03 | 1.06 | 0.938 | 0.992 | 0.89 | 0.938 | 0.989 | 0.952 | 0.926 | 0.96 | 0.95 | 1.05 | 0.812 | 0.929 | 0.917 | 0.994 | 0.994 | 1.19
HARA | 1.14 | 1.06 | 1.04 | 0.993 | 0.636 | 1.04 | 0.86 | 0.951 | 1 | 1.04 | 0.796 | – | 0.977 | 0.997 | 0.859 | 0.893 | 0.958 | 0.981 | 0.865 | 0.903 | 1.12 | 0.94 | 0.767 | 0.843
HCC-15 | 1.08 | 1.03 | 1.08 | 1.2 | 0.957 | 0.995 | 0.994 | 1.09 | 1.01 | 0.967 | 0.856 | 0.936 | 1.01 | 0.874 | 0.963 | 1.14 | 1.08 | 0.968 | 1.03 | 0.954 | 1.13 | 1.06 | 0.94 | 1.06
HCC-44 | 0.982 | 0.976 | 1.07 | 1.05 | 1.06 | 1.07 | 0.935 | 0.978 | 0.986 | 1.05 | 0.921 | 1.04 | 0.922 | 0.974 | 0.981 | 1.04 | 1.01 | 0.979 | 0.933 | 0.956 | 1.04 | 0.919 | 0.905 | 1.04
HCC-78 | 0.879 | 0.906 | 1.06 | 1.08 | 0.917 | 1.03 | 0.942 | 0.937 | 0.782 | 1.15 | 0.925 | 0.724 | 1.03 | 0.474 | 1.07 | 0.94 | 0.856 | 0.886 | 0.774 | 0.949 | 1.09 | 0.75 | 0.871 | 1.03
HCC-366 | 1.03 | 1.05 | 1.13 | 1.02 | 1 | 1.03 | 0.992 | 0.877 | 1.01 | 1.08 | 0.991 | – | 1.06 | 0.854 | 1.02 | 1.01 | 1.09 | 1.02 | 1.02 | 0.999 | 1.08 | 1.09 | 1.03 | 1.06
HCC-827 | 1.04 | 1.07 | 1.08 | 1.06 | 1 | 1.05 | 1.04 | 1.05 | 1.01 | 0.986 | 0.952 | 0.791 | 1.02 | 1.02 | 1.04 | 1.11 | 1.02 | 1.06 | 0.992 | 1.04 | 1.07 | 1.05 | 0.773 | 1.06
HOP-62 | 1.06 | 1.09 | 1.21 | 1.06 | 1.05 | 1.03 | 1.03 | 1.16 | 1.01 | 1.06 | 0.989 | 0.915 | 1.14 | 0.744 | 1.08 | 1 | 0.997 | 0.954 | 0.981 | 1.03 | 1.11 | 1.13 | 0.886 | 1.14
IA-LM | 1.02 | 0.879 | 0.916 | 1.25 | 0.883 | 0.937 | 0.938 | 1 | 0.972 | 0.995 | 0.813 | 1.02 | 1.01 | 0.958 | 0.997 | 0.894 | 0.96 | 0.862 | 0.825 | 0.987 | 1.05 | 0.887 | 0.805 | 1.12
LC-2-ad | 1.02 | 1.05 | 1.1 | 1.15 | 0.88 | 1.03 | 0.868 | 0.993 | 1.03 | 1.03 | 0.84 | 0.819 | 1.05 | 0.935 | 1.01 | 1.07 | 1.01 | 1.01 | 1.01 | 0.924 | 1.1 | 1.06 | 0.967 | 1.02
LCLC-97TM1 | 0.725 | 0.81 | 1.11 | 1.03 | 0.864 | 0.979 | 0.86 | 1.06 | 1.04 | 0.845 | 0.738 | 1.03 | 0.963 | 0.468 | 0.978 | 0.973 | 0.969 | 0.953 | 1.04 | 0.971 | 0.962 | 0.929 | 0.794 | 1.09
LCLC-103H | 1.01 | 1.01 | 1.02 | 0.952 | 0.687 | 1.08 | 0.98 | 0.923 | 1.01 | 1.04 | 0.875 | 0.805 | 1.02 | 0.993 | 1.06 | 1.02 | 1.01 | 0.903 | 0.997 | 0.96 | 1.01 | 1 | 0.953 | 1.05
LK-2 | 1.06 | 0.944 | 0.903 | 0.709 | 0.312 | 1.24 | 0.923 | 0.906 | 0.953 | 1.06 | 0.925 | 0.602 | 0.514 | 0.197 | 1.03 | 1.07 | 1.12 | 0.97 | 1.07 | 1.09 | 1.16 | 1.06 | 0.9 | 1.45
LOU-NH91 | 0.91 | 0.975 | 1.03 | 1.12 | 0.949 | 0.969 | 0.876 | 1.01 | 1.08 | 1.15 | 0.894 | 0.81 | 0.999 | 0.655 | 0.905 | 0.974 | 0.928 | 1.1 | 0.92 | 0.92 | 1.02 | 0.868 | 0.79 | 0.981
